Target: human GnRH receptor (Homo sapiens (Human), UniProt P30968)
Experiment: 125I-leuprorelin binding inhibition, CHO cell membrane fraction containing human GnRH receptor
Conditions: human GnRH receptor expressed in CHO cell membrane, 25° C., 60 minutes, from Hill plot
Description: To a tube containing 10 μl of a 3×10^−4 M aqueous solution of leuprorelin and 10 μl of 0.01 mg/ml lactoperoxidase was added 10 μl (37 MBq) of a solution of Na^125I. After stirring, 10 μl of 0.001% H2O2 was added, and a reaction was carried out at room temperature for 20 minutes. By adding 700 μl of a 0.05% TFA solution, the reaction was stopped, followed by purification by reversed-phase HPLC. The HPLC conditions used are shown below. ^125I-leuprorelin was eluted at a retention time of 26 to 27 minutes.
Human GnRH receptor-expressing CHO cells (10^9 cells) were suspended in phosphate-buffered saline supplemented with 5 mM EDTA (PBS-EDTA) and centrifuged at 100×g for 5 minutes. […]
The monkey and human membrane fractions prepared in the above (2) and (3) were diluted with the assay buffer to yield a 200 µg/ml dilution, each of which was then dispensed at 188 μl per tube. […] To determine maximum binding quantity, a reaction mixture containing 2 μl of 60% DMSO and 10 μl of 38 nM ^125I-leuprorelin was prepared. […]
Where the membrane fraction of the CHO with monkey and human GnRH receptors expressed was used, the reaction was carried out at 25° C. for 60 minutes. […] After this filtration, the radioactivity of ^125I-leuprorelin remaining on the filter paper was measured with a γ-counter. […]

Chain of human GnRH receptor (P30968 whole entry): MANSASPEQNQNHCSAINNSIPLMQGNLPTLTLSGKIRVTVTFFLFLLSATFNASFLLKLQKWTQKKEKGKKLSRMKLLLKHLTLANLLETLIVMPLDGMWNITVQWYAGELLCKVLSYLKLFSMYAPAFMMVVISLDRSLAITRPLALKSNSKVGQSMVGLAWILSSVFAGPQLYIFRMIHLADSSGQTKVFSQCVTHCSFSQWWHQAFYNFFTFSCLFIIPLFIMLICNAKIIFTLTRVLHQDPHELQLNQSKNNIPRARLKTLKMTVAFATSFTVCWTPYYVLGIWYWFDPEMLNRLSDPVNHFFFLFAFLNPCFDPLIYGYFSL

Point of comparison: `CCOCCN(C)Cc1c(-c2ccc(NC(=O)NOC)cc2)sc2c1c(=O)n(-c1ccccn1)c(=O)n2Cc1c(F)cccc1F` [Ex. Compd. No. 41, N-(4-(1-(2,6-difluorobenzyl)-5-(((2-ethoxyethyl)(methyl)amino)methyl)-2,4-dioxo-3-(2-pyridinyl)-1,2,3,4-tetrahydrothieno[2,3-d]pyrimidin-6-yl)phenyl)-N′-methoxyurea], IC50 0.0001 µM. Against it:
- COCCN(C)Cc1c(-c2ccc(NC(=O)NOC)cc2)sc2c1c(=O)n(-c1ccccn1)c(=O)n2Cc1c(F)cccc1F [Ex. Compd. No. 40, N-(4-(1-(2,6-difluorobenzyl)-5-(((2-methoxyethyl)(methyl)amino)methyl)-2,4-dioxo-3-(2-pyridinyl)-1,2,3,4-tetrahydrothieno[2,3-d]pyrimidin-6-yl)phenyl)-N′-methoxyurea] — 2-fold higher, 0.0002 µM

Test system: not given
Experiment: not given
Conditions: not given

First: CONC(=O)Nc1ccc(-c2sc3c(c2CN[C@H](C)c2ccccc2)c(=O)n(-c2ccccc2)c(=O)n3Cc2c(F)cccc2F)cc1 (hydrate or solvate) [Reference Example 28, N-(4-(5-(((1R)-1-phenylethylamino)methyl)-1-(2,6-difluorobenzyl)-1,2,3,4-tetrahydro-2,4-dioxo-3-phenylthieno[2,3-d]pyrimidin-6-yl)phenyl)-N′-methoxyurea]
Second: CONC(=O)Nc1ccc(-c2sc3c(c2CN[C@@H](C)c2ccccc2)c(=O)n(-c2ccccc2)c(=O)n3Cc2c(F)cccc2F)cc1 [Reference Example 29, N-(4-(5-(((1S)-1-phenylethylamino)methyl)-1-(2,6-difluorobenzyl)-1,2,3,4-tetrahydro-2,4-dioxo-3-phenylthieno[2,3-d]pyrimidin-6-yl)phenyl)-N′-methoxyurea]
The melting point of the first is lower: 180 to 182 °C for the first, 182 to 185 °C for the second.

Compared with `COCC(c1ccccc1)N(C)Cc1c(-c2ccc(NC(=O)NOC)cc2)sc2c1c(=O)n(-c1ccccc1)c(=O)n2Cc1c(F)cccc1F` (centres unmarked) [Reference Example 32, N-(4-(1-(2,6-difluorobenzyl)-5-((2-methoxy-1-phenylethyl(methyl)amino)methyl)-1,2,3,4-tetrahydro-2,4-dioxo-3-phenylthieno[2,3-d]pyrimidin-6-yl)phenyl)-N′-methoxyurea], `COCC(C)N(C)Cc1c(-c2ccc(NC(=O)NOC)cc2)sc2c1c(=O)n(-c1ccccc1)c(=O)n2Cc1c(F)cccc1F` (centres unmarked) [Reference Example 34, N-(4-(1-(2,6-difluorobenzyl)-5-(((2-methoxy-1-methylethyl)methylamino)methyl)-1,2,3,4-tetrahydro-2,4-dioxo-3-phenylthieno[2,3-d]pyrimidin-6-yl)phenyl)-N′-methoxyurea] is lower in melting point: 169 to 172 °C for the first, 154 to 155 °C for the second.

First: CONC(=O)Nc1ccc(-c2sc3c(c2CN(C)[C@H](C)c2ccccc2)c(=O)n(-c2ccccn2)c(=O)n3Cc2c(F)cccc2F)cc1 [Reference Example 38, N-(4-(5-((methyl((1R)-1-phenylethyl)amino)methyl)-1-(2,6-difluorobenzyl)-1,2,3,4-tetrahydro-2,4-dioxo-3-pyridin-2-ylthieno[2,3-d]pyrimidin-6-yl)phenyl)-N′-methoxyurea]
Second: CONC(=O)Nc1ccc(-c2sc3c(c2CN(C)[C@H](C)c2ccccc2)c(=O)n(-c2ccc(F)cn2)c(=O)n3Cc2c(F)cccc2F)cc1 [Reference Example 39, N-(4-(5-((methyl((1R)-1-phenylethyl)amino)methyl)-1-(2,6-difluorobenzyl)-1,2,3,4-tetrahydro-2,4-dioxo-3-(5-fluoropyridin-2-yl)thieno[2,3-d]pyrimidin-6-yl)phenyl)-N′-methoxyurea]
The melting point of the first is higher: 168 to 170 °C for the first, 128 to 130 °C for the second.
